Legend:
Homo sapiens = species on record: Homo sapiens; assay: Compound was evaluated for in vitro inhibition of ADP-induced aggregation of human platelet rich plasma; assay type: functional
[1] = target: Integrin alpha-IIb/beta-3 (Homo sapiens, UniProt P05106+P08514); assay: Dissociation constant for platelet glycoprotein alphaIIb-beta3 integrin from human platelets
Sequence of Integrin alpha-IIb/beta-3 (P05106 27-788 limits assumed): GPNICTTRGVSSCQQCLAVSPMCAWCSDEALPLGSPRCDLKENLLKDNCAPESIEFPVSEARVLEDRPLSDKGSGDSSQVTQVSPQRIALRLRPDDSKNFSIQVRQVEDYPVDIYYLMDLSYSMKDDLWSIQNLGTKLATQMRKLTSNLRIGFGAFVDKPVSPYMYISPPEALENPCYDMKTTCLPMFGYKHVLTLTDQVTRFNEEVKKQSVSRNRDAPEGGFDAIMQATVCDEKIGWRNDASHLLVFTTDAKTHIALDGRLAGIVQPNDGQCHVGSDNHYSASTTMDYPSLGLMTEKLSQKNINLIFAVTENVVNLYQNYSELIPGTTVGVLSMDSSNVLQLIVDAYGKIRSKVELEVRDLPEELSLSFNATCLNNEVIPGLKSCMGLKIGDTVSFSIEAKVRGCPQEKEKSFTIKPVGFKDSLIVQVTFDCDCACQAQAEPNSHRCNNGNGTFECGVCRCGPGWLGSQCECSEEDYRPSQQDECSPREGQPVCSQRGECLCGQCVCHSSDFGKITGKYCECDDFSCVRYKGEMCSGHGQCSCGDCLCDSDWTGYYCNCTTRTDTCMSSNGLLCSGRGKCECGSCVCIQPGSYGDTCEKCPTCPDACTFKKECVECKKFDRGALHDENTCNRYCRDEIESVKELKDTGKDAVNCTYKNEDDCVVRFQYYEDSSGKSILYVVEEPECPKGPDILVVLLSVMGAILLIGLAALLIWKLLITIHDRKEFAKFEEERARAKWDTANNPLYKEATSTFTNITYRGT
Sequence of Integrin alpha-IIb/beta-3 (P08514 32-887 limits assumed): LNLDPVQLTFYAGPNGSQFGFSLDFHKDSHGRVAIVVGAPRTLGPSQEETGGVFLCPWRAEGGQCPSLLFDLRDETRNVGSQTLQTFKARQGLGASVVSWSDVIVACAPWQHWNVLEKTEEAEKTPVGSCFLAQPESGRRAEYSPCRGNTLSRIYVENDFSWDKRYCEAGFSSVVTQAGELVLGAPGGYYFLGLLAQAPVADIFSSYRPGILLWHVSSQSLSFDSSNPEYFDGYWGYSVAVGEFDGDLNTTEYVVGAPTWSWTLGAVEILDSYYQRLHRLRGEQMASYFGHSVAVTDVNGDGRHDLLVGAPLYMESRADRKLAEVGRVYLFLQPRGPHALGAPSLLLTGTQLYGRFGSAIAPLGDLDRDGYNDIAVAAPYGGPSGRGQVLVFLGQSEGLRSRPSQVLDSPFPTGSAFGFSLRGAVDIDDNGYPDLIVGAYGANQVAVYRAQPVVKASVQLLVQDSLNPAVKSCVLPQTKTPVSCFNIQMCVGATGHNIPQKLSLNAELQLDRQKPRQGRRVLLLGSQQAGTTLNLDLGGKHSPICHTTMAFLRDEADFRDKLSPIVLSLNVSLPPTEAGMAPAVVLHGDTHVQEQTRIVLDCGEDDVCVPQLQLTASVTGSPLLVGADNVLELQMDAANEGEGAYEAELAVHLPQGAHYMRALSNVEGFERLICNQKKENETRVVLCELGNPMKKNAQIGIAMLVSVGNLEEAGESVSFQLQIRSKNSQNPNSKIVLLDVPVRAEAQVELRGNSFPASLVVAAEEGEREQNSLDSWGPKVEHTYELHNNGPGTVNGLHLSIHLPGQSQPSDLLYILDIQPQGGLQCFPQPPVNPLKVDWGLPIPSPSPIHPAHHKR
Sequence of Integrin alpha-IIb/beta-3 (P08514 891-1039 limits assumed): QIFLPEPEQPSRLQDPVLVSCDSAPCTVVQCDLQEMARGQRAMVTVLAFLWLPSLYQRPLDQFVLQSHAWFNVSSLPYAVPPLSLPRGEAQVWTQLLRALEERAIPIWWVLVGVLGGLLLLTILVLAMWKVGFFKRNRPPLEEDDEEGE

SMILES	IC50 (Homo sapiens) [µM]	Ki [1] [µM]
CN(C(=O)c1ccccc1SCC(=O)NC1CC(C)(C)N([O])C(C)(C)C1)[C@@H](CCCN=C(N)N)C(=O)NCC(=O)N[C@@H](C(=O)O)C(=O)Nc1ccccc1SCC(=O)NC1CC(C)(C)N([O])C(C)(C)C1	1.02	0.11
CC1(C)CC(NC(=O)CBr)CC(C)(C)N1[O]	> 200	> 1000

Source: ChEMBL document CHEMBL1151570, “Preparation and Properties of a fibrinogen receptor antagonist containing the Arg-Gly-Asp sequence and nitroxide radicals” (Bioorg Med Chem Lett, 1993)
